Experimental data reported in PubChem BioAssay (NCI).
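How tested: cells in 96-well plates exposed to compound for 48 hours at five concentrations. The concentration for full growth arrest is given as TGI.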

What was measured:
Test in all cases: NCI tumour cell line growth inhibition, 48 h
EKVX NSCLC = system: EKVX NSCLC
UO-31 renal = system: UO-31 renal
KM12 colon = system: KM12 colon
OVCAR-8 ovarian = system: OVCAR-8 ovarian
M19-MEL melanoma = system: M19-MEL melanoma
HCC-2998 colon = system: HCC-2998 colon
HCT-15 colon = system: HCT-15 colon
SR leukemia = system: SR leukemia
OVCAR-3 ovarian = system: OVCAR-3 ovarian
KM20L2 colon = system: KM20L2 colon
CCRF-CEM leukemia = system: CCRF-CEM leukemia
MOLT-4 leukemia = system: MOLT-4 leukemia
SK-MEL-28 melanoma = system: SK-MEL-28 melanoma
SK-OV-3 ovarian = system: SK-OV-3 ovarian
TK-10 renal = system: TK-10 renal
M14 melanoma = system: M14 melanoma
LXFL 529 NSCLC = system: LXFL 529 NSCLC
COLO 205 colon = system: COLO 205 colon
K-562 leukemia = system: K-562 leukemia
SW-620 colon = system: SW-620 colon
NCI-H226 lung = system: NCI-H226 lung
OVCAR-4 ovarian = system: OVCAR-4 ovarian
NCI-H522 lung = system: NCI-H522 lung
HL-60(TB) leukemia = system: HL-60(TB) leukemia
RXF 393 renal = system: RXF 393 renal
HOP-92 NSCLC = system: HOP-92 NSCLC
U251 CNS = system: U251 CNS
CAKI-1 renal = system: CAKI-1 renal
UACC-62 melanoma = system: UACC-62 melanoma
DMS 114 small cell lung = system: DMS 114 small cell lung
XF 498 CNS = system: XF 498 CNS
SN12C renal = system: SN12C renal
MALME-3M melanoma = system: MALME-3M melanoma
RPMI-8226 leukemia = system: RPMI-8226 leukemia
SNB-75 CNS = system: SNB-75 CNS
SF-539 CNS = system: SF-539 CNS
IGROV1 ovarian = system: IGROV1 ovarian
OVCAR-5 ovarian = system: OVCAR-5 ovarian
NCI-H460 lung = system: NCI-H460 lung
HCT-116 colon = system: HCT-116 colon
LOX IMVI melanoma = system: LOX IMVI melanoma
NCI-H23 lung = system: NCI-H23 lung
SF-268 CNS = system: SF-268 CNS
UACC-257 melanoma = system: UACC-257 melanoma
SF-295 CNS = system: SF-295 CNS
HOP-18 NSCLC = system: HOP-18 NSCLC
ACHN renal = system: ACHN renal
A549 NSCLC = system: A549 NSCLC
A498 renal = system: A498 renal
DMS 273 small cell lung = system: DMS 273 small cell lung
HT29 colon = system: HT29 colon
SNB-78 CNS = system: SNB-78 CNS
786-0 renal = system: 786-0 renal
SK-MEL-2 melanoma = system: SK-MEL-2 melanoma
SNB-19 CNS = system: SNB-19 CNS
SK-MEL-5 melanoma = system: SK-MEL-5 melanoma
HOP-62 NSCLC = system: HOP-62 NSCLC

Measured: TGI

O=C1C(c2ccccc2)=C(O)c2cccc3cccc1c23
not listed: HOP-62 NSCLC
> 100 µM: all other assays above

Cc1cn(C2CC3C(COCN3O)O2)c(=O)[nH]c1=O (stereo not given)
not listed: NCI-H522 lung | HOP-92 NSCLC | CAKI-1 renal | MALME-3M melanoma | HOP-18 NSCLC | A498 renal | SNB-78 CNS | SK-MEL-2 melanoma
> 100 µM: all other assays above
